In patent publication US6410792B1, “Amide derivatives and methods for using the same as selective neuropeptide Y receptor antagonists” (Bayer Corporation, priority 1997, dated 2002):
Counter-ions that a name gives are not always drawn.

target: T1, Y2 receptor (Homo sapiens, UniProt P49146); assay: Y2 receptor binding assay ([125I]PYY, membrane protein); settings: [125I]PYY binding, membrane protein; read-out: hNPY2 IC50
T1 sequence (P49146 1-381): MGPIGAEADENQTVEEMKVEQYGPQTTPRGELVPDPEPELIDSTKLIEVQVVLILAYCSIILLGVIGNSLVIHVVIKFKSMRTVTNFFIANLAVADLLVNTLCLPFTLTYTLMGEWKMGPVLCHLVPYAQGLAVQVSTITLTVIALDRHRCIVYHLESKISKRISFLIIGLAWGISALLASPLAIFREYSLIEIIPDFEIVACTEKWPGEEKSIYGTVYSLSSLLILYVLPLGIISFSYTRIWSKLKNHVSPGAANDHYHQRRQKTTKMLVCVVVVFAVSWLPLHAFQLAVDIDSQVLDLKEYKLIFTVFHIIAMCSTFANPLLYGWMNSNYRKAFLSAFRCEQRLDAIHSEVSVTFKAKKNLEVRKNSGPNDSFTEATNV
Description: B. Human Y2 and Y4/PP1 Receptor Binding Assays
Binding assays were performed on GF/C Millipore 96-well plates pretreated with 0.02% polyethylenimine. The binding buffer for rat Y2 binding is Krebs-Ringer bicarbonate (pH 7.4) containing 0.01% BSA and 0.005% bacitracin. Samples consist of membrane protein, 25 pM [1251]PYY and drug dilution. Nonspecific binding is defined by 1 μM NPY. The binding buffer for human Y4/PP1 binding consists of 137 mM NaCl, 5.4 mM KCl, 0.44 mM KH2PO4, 1.26 mM CaCl2, 0.81 mM MgSO4, 20 mM HEPES, 1 mM dithiothreitol, 0.1% bacitracin, 100 mg/l streptomycin sulfate, 1 mg/l aprotinin, 10 mg/ml soybean trypsin inhibitor and 0.3% BSA, pH 7.4. Samples consist of membrane protein, 50 pM human [1251]human PP (hPP: NEN DuPont, Boston, Mass.) and drug dilution. 1 μM hPP is used to define nonspecific binding.
After a 2 hour incubation at room temperature with constant mixing, the samples are aspirated on a vacuum manifold, and rinsed with ice-cold binding buffer. The amount of radioactivity in each well is quantitated with either gamma counting or liquid scintillation.

“1-[(4 Benzoyl-phenylcarbamoyl)-methyl]-4-dimethylamino-piperidine-4-carboxylic acid amide [Compound 53]” and “1-[(4-Cyclohexyl-phenylcarbamoyl)-methyl]-piperidine-4-carboxylic acid [Compound 25]” cannot be ordered by IC50: > 5 µM for the first, > 5 µM for the second.

“2-[4-(4-Bromo-phenyl)-4-hydroxy-piperidin-1-yl]-N-(4-cyclohexyl-phenyl)-acetamide [Compound 88]” and “2-[4-(4-Chloro-phenyl)-3,6-dihydro-2H-pyridin-1-yl]-N-(4-cyclohexyl-phenyl)-acetamide [Compound 15]” cannot be ordered by IC50: > 5 µM for the first, > 5 µM for the second.

`O=C(CN1CCC(O)(Cc2ccccc2)CC1)Nc1ccc(C2CCCCC2)cc1` [Compound 1, 2-(4-Benzyl-4-hydroxypiperidin-1-yl)-N-(4-cyclohexylphenyl)acetamide] and `CN(C)CC(=O)Nc1ccc(C2CCCCC2)cc1` [Compound 2, N-(4-Cyclohexyl-phenyl)-2-dimethylamino-acetamide] cannot be ordered by IC50: > 5 µM for the first, > 5 µM for the second.

`O=C(CN1CCN(c2ccc(Cl)cc2)CC1)Nc1ccc(C2CCCCC2)cc1` [Compound 4, 2-[4-(4-Chloro-phenyl)-piperazin-1-yl]-N-(4-cyclohexyl-phenyl)-acetamide] and `O=C(CN1CCCC1C(=O)O)Nc1ccc(C(=O)c2ccccc2)cc1` (centres unmarked) [Compound 124, 1-[(4-Benzoyl-phenylcarbamoyl)-methyl]-pyrrolidine-2-carboxylic acid] cannot be ordered by IC50: > 5 µM for the first, > 5 µM for the second.

same assay, conditions: [125I]PYY, membrane protein; read-out: hNPY2 IC50

For `O=C(CN1CCC(n2c(=O)[nH]c3ccccc32)CC1)NC(c1ccccc1)c1ccccc1` [Compound 322, N-Benzhydryl-2-[4-(2-oxo-2,3-dihydro-benzoimidazol-1-yl)-piperidin-1-yl]-acetamide; hydrochloride], the IC50 was > 5 µM.

target: T2, Human NPY5 receptor (Homo sapiens, UniProt Q15761); assay: Human NPY5 receptor binding assay ([125I]PYY, membrane protein); settings: [125I]PYY binding, read-out: hNPY5 IC50
T2 sequence (Q15761 1-445): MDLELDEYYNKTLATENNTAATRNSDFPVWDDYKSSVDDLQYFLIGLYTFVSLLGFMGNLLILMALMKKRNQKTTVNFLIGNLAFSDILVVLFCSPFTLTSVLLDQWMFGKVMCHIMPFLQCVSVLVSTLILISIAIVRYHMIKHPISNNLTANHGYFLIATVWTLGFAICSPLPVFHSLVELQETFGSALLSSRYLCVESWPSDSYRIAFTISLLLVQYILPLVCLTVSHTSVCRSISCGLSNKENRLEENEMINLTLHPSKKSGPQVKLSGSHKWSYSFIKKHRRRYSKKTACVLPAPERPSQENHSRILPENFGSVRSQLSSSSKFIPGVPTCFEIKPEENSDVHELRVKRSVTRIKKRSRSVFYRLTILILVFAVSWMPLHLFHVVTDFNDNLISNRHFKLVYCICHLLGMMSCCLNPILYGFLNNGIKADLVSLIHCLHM
Description: C. Human and Rat NPY5 Receptor Binding Assays
Binding assays are performed on GF/C Millipore 96well plates pretreated with 0.02% polyethylenimine. The binding buffer is 25 mM Tris, 120 mM NaCl, 5 mM KCl, 1.2 mM KH2PO4, 2.5 mM CaCl2, 1.2 mM MgSO4, 0.1% BSA and 0.5 mg/ml bacitracin, pH 7.4. Samples consist of membrane protein, 75-100 pM [125I]PYY (porcine, NEN-DuPont) and drug dilution. Nonspecific binding is defined by 1 μM PYY. After a 2 hour incubation at room temperature with constant mixing, the samples are aspirated on a vacuum manifold, and rinsed with ice-cold binding buffer. The amount of radioactivity in each well is quantitated with either gamma counting or liquid scintillation.

Going from “1-[(4 Benzoyl-phenylcarbamoyl)-methyl]-4-dimethylamino-piperidine-4-carboxylic acid amide [Compound 53]” to “1-[(4-Cyclohexyl-phenylcarbamoyl)-methyl]-piperidine-4-carboxylic acid [Compound 25]”, the IC50 rises from 0.44 µM to 1.9 µM (4.3-fold). The first is the more potent here.

Going from “2-[4-(4-Bromo-phenyl)-4-hydroxy-piperidin-1-yl]-N-(4-cyclohexyl-phenyl)-acetamide [Compound 88]” to “2-[4-(4-Chloro-phenyl)-3,6-dihydro-2H-pyridin-1-yl]-N-(4-cyclohexyl-phenyl)-acetamide [Compound 15]”, the IC50 rises from 0.12 µM to 2.7 µM (23-fold). The first is the more potent here.

Going from `O=C(CN1CCC(O)(Cc2ccccc2)CC1)Nc1ccc(C2CCCCC2)cc1` [Compound 1, 2-(4-Benzyl-4-hydroxypiperidin-1-yl)-N-(4-cyclohexylphenyl)acetamide] to `CN(C)CC(=O)Nc1ccc(C2CCCCC2)cc1` [Compound 2, N-(4-Cyclohexyl-phenyl)-2-dimethylamino-acetamide], the IC50 rises from 0.15 µM to 0.78 µM (5.2-fold).

First: O=C(CN1C[C@H](O)C[C@H]1C(=O)O)Nc1ccc(C2CCCCC2)cc1 [Compound 12, (4R,2S)-1-[(4-Cyclohexyl-phenylcarbamoyl)-methyl]-4-hydroxy-pyrrolidine-2-carboxylic acid]
Second: CN(C)C1(C(N)=O)CCN(CC(=O)Nc2ccc(C3CCCCC3)cc2)CC1 [Compound 65, 1-[(4-Cyclohexyl-phenylcarbamoyl)-methyl]-4-dimethylamino-piperidine-4-carboxylic acid amide]
The IC50 of the first is 13-fold higher: 8.9 µM for the first, 0.69 µM for the second. The second is the more potent here.

`O=C(CNC(c1ccccc1)c1ccccc1)Nc1ccc(C2CCCCC2)cc1` [Compound 131, 2-(Benzhydryl-amino)-N-(4-cyclohexyl-phenyl)-acetamide] and `NCCNCC1CCN(CC(=O)Nc2ccc(C(=O)c3ccccc3)cc2)CC1` [Compound 134, 2-{4-[(2-Amino-ethylamino)-methyl]-piperidin-1-yl}-N-(4-benzoyl-phenyl)-acetamide] cannot be ordered by IC50: > 5 µM for the first, > 5 µM for the second.

`O=C(CN1CCCC1)Nc1ccc(C(=O)c2ccccc2)cc1` [Compound 136, N-(4-Benzoyl-phenyl)-2-pyrrolidin-1-yl-acetamide] and `O=C(CNc1nc[nH]n1)Nc1ccc(C(=O)c2ccccc2)cc1` [Compound 137, N-(4-Benzoyl-phenyl)-2-(1H-[1,2,4]triazol-3-ylamino)-acetamide] cannot be ordered by IC50: > 5 µM for the first, > 5 µM for the second.

`O=C(CNC(c1ccccc1)c1ccccc1)Nc1ccc(C(=O)c2ccccc2)cc1` [Compound 138, 2-(Benzhydryl-amino)-N-(4-benzoyl-phenyl)-acetamide] and `Cn1cccc1CCNCC(=O)Nc1ccc(C(=O)c2ccccc2)cc1` [Compound 139, N-(4-Benzoyl-phenyl)-2-[2-(1-methyl-1H-pyrrol-2-yl)-ethylamino]-acetamide] cannot be ordered by IC50: > 5 µM for the first, > 5 µM for the second.

`CCCCCCCCCCNCC(=O)Nc1ccc(C2CCCCC2)cc1` [Compound 140, N-(4-Cyclohexyl-phenyl)-2-decylamino-acetamide] and `O=C(CNCCCc1ccccc1)Nc1ccc(C2CCCCC2)cc1` [Compound 141, N-(4-Cyclohexyl-phenyl)-2-(3-phenyl-propylamino)-acetamide] cannot be ordered by IC50: > 5 µM for the first, > 5 µM for the second.

`O=C(CNCCc1c[nH]cn1)Nc1ccc(C2CCCCC2)cc1` [Compound 142, N-(4-Cyclohexyl-phenyl)-2-[2-(1H-imidazol-4-yl)-ethylamino]-acetamide] and `O=C(CNCCc1c[nH]c2ccccc12)Nc1ccc(C2CCCCC2)cc1` [Compound 143, N-(4-Cyclohexyl-phenyl)-2-[2-(1H-indol-3-yl)-ethylamino]-acetamide] cannot be ordered by IC50: > 5 µM for the first, > 5 µM for the second.

`COc1ccc2[nH]cc(CCNCC(=O)Nc3ccc(C4CCCCC4)cc3)c2c1` [Compound 144, N-(4-Cyclohexyl-phenyl)-2-[2-(5-methoxy-1H-indol-3-yl)-ethylamino]-acetamide] and `COc1ccc(CCNCC(=O)Nc2ccc(C3CCCCC3)cc2)cc1` [Compound 145, N-(4-Cyclohexyl-phenyl)-2-[2-(4-methoxy-phenyl)-ethylamino]-acetamide] cannot be ordered by IC50: > 5 µM for the first, > 5 µM for the second.

`O=C(CNCCN1CCNCC1)Nc1ccc(C2CCCCC2)cc1` [Compound 146, N-(4-Cyclohexyl-phenyl)-2-(2-piperazin-1-yl-ethylamino)-acetamide] and `O=C(CNCCNc1ccc([N+](=O)[O-])cn1)Nc1ccc(C2CCCCC2)cc1` [Compound 147, N-(4-Cyclohexyl-phenyl)-2-[2-(5-nitro-pyridin-2-ylamino)-ethylamino]-acetamide] cannot be ordered by IC50: > 5 µM for the first, > 5 µM for the second.

`COc1ccccc1CNCC(=O)Nc1ccc(C2CCCCC2)cc1` [Compound 149, N-(4-Cyclohexyl-phenyl)-2-(2-methoxy-benzylamino)-acetamide] and `CCCCCCCCCCNCC(=O)Nc1ccc(C(=O)c2ccccc2)cc1` [Compound 150, N-(4-Benzoyl-phenyl)-2-decylamino-acetamide] cannot be ordered by IC50: > 5 µM for the first, > 5 µM for the second.

`O=C(CNCCCc1ccccc1)Nc1ccc(C(=O)c2ccccc2)cc1` [Compound 151, N-(4-Benzoyl-phenyl)-2-(3-phenyl-propylamino)-acetamide] and `O=C(CNCCc1c[nH]cn1)Nc1ccc(C(=O)c2ccccc2)cc1` [Compound 152, N-(4-Benzoyl-phenyl)-2-[2-(1H-imidazol-4-yl)-ethylamino]-acetamide] cannot be ordered by IC50: > 5 µM for the first, > 5 µM for the second.

`O=C(CNCCc1c[nH]c2ccccc12)Nc1ccc(C(=O)c2ccccc2)cc1` [Compound 153, N-(4-Benzoyl-phenyl)-2-[2-(1H-indo-3-yl)-ethylamino]-acetamide] and `COc1ccc(CCNCC(=O)Nc2ccc(C(=O)c3ccccc3)cc2)cc1` [Compound 155] cannot be ordered by IC50: > 5 µM for the first, > 5 µM for the second.

`O=C(CNCCN1CCNCC1)Nc1ccc(C(=O)c2ccccc2)cc1` [Compound 156, N-(4-Benzoyl-phenyl)-2-(2-piperazin-1-yl-ethylamino)-acetamide] and `O=C(CNCCNc1ccc([N+](=O)[O-])cn1)Nc1ccc(C(=O)c2ccccc2)cc1` [Compound 157, N-(4-Benzoyl-phenyl)-2-[2-(5-nitro-pyridin-2-ylamino)-ethylamino]-acetamide] cannot be ordered by IC50: > 5 µM for the first, > 5 µM for the second.

`O=C(CNCc1ccc2c(c1)OCO2)Nc1ccc(C(=O)c2ccccc2)cc1` [Compound 158, 2-[(Benzo[1,3]dioxol-5-ylmethyl)-amino]-N-(4-benzoyl-phenyl)-acetamide] and `COc1ccccc1CNCC(=O)Nc1ccc(C(=O)c2ccccc2)cc1` [Compound 159, N-(4-Benzoyl-phenyl)-2-(2-methoxy-benzylamino)-acetamide] cannot be ordered by IC50: > 5 µM for the first, > 5 µM for the second.
